{
  "source": "ChEMBL document CHEMBL4421728",
  "about": "“Bach1 Inhibitors in Combination with Nrf2 Activators and Pharmaceutical Compositions Thereof” (2017)",
  "key": {"[1]": {"biological_target": "T1, Nuclear factor erythroid 2-related factor 2 (Homo sapiens) (UniProt Q16236)", "T1 sequence (whole entry)": "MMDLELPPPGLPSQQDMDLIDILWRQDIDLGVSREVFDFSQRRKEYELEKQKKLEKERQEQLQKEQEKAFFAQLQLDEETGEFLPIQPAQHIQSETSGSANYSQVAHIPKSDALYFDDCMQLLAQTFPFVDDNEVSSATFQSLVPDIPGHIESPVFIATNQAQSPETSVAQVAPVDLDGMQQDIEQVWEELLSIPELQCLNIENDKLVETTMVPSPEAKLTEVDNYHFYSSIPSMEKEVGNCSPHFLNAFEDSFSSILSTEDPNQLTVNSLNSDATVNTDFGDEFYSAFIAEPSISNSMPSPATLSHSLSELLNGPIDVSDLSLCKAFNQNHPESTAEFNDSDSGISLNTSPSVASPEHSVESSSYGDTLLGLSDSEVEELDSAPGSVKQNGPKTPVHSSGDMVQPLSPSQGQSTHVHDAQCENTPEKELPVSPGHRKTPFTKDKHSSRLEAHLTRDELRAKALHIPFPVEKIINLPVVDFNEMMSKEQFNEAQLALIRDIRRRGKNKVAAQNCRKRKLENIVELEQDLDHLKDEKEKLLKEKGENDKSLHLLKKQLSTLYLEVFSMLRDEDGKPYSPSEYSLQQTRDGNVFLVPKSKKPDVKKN", "experiment": "Activation of Nrf2 in normal human lung fibroblasts assessed as induction of HMOX protein expression at 0.0097 uM incubated for 16 to 18 hrs by immunostaining relative to control"}, "[2]": {"biological_target": "T1, Nuclear factor erythroid 2-related factor 2 (Homo sapiens)", "experiment": "Activation of Nrf2 in normal human lung fibroblasts assessed as induction of HMOX protein expression at 0.156 uM incubated for 16 to 18 hrs by immunostaining relative to control"}, "[3]": {"biological_target": "T1, Nuclear factor erythroid 2-related factor 2 (Homo sapiens)", "experiment": "Activation of Nrf2 in normal human lung fibroblasts assessed as induction of HMOX protein expression at 0.039 uM incubated for 16 to 18 hrs by immunostaining relative to control"}, "[4]": {"biological_target": "T1, Nuclear factor erythroid 2-related factor 2 (Homo sapiens)", "experiment": "Activation of Nrf2 in normal human lung fibroblasts assessed as induction of HMOX protein expression at 0.312 uM incubated for 16 to 18 hrs by immunostaining relative to control"}, "[5]": {"biological_target": "T1, Nuclear factor erythroid 2-related factor 2 (Homo sapiens)", "experiment": "Activation of Nrf2 in normal human lung fibroblasts assessed as induction of HMOX protein expression at 0.0024 uM incubated for 16 to 18 hrs by immunostaining relative to control"}, "[6]": {"biological_target": "T1, Nuclear factor erythroid 2-related factor 2 (Homo sapiens)", "experiment": "Activation of Nrf2 in normal human lung fibroblasts assessed as induction of HMOX protein expression at 0.019 uM incubated for 16 to 18 hrs by immunostaining relative to control"}, "[7]": {"biological_target": "T1, Nuclear factor erythroid 2-related factor 2 (Homo sapiens)", "experiment": "Activation of Nrf2 in normal human lung fibroblasts assessed as induction of HMOX protein expression at 0.0048 uM incubated for 16 to 18 hrs by immunostaining relative to control"}, "[8]": {"biological_target": "T1, Nuclear factor erythroid 2-related factor 2 (Homo sapiens)", "experiment": "Activation of Nrf2 in normal human lung fibroblasts assessed as induction of HMOX protein expression at 0.078 uM incubated for 16 to 18 hrs by immunostaining relative to control"}, "[9]": {"biological_target": "T1, Nuclear factor erythroid 2-related factor 2 (Homo sapiens)", "experiment": "Activation of Nrf2 in normal human lung fibroblasts assessed as induction of HMOX protein expression by measuring HMOX positive cells level at 10 uM incubated for 16 to 18 hrs by immunostaining relative to control DMSO"}, "[10]": {"biological_target": "T1, Nuclear factor erythroid 2-related factor 2 (Homo sapiens)", "experiment": "Activation of Nrf2 in normal human lung fibroblasts assessed as induction of HMOX protein expression at 0.1 uM incubated for 16 to 18 hrs by immunostaining relative to control"}, "[11]": {"biological_target": "T1, Nuclear factor erythroid 2-related factor 2 (Homo sapiens)", "experiment": "Activation of Nrf2 in normal human lung fibroblasts assessed as induction of HMOX protein expression by measuring HMOX positive cells level at 0.3 uM incubated for 16 to 18 hrs by immunostaining relative to control DMSO"}, "[12]": {"biological_target": "T1, Nuclear factor erythroid 2-related factor 2 (Homo sapiens)", "experiment": "Activation of Nrf2 in normal human lung fibroblasts assessed as induction of HMOX protein expression at 10 uM incubated for 16 to 18 hrs by immunostaining relative to control"}, "[13]": {"biological_target": "T1, Nuclear factor erythroid 2-related factor 2 (Homo sapiens)", "experiment": "Activation of Nrf2 in normal human lung fibroblasts assessed as induction of HMOX protein expression by measuring HMOX positive cells level at 0.03 uM incubated for 16 to 18 hrs by immunostaining relative to control DMSO"}, "[14]": {"biological_target": "T1, Nuclear factor erythroid 2-related factor 2 (Homo sapiens)", "experiment": "Activation of Nrf2 in normal human lung fibroblasts assessed as induction of HMOX protein expression at 0.3 uM incubated for 16 to 18 hrs by immunostaining relative to control"}, "[15]": {"biological_target": "T1, Nuclear factor erythroid 2-related factor 2 (Homo sapiens)", "experiment": "Activation of Nrf2 in normal human lung fibroblasts assessed as induction of HMOX protein expression by measuring HMOX positive cells level at 30 uM incubated for 16 to 18 hrs by immunostaining relative to control DMSO"}, "[16]": {"biological_target": "T1, Nuclear factor erythroid 2-related factor 2 (Homo sapiens)", "experiment": "Activation of Nrf2 in normal human lung fibroblasts assessed as induction of HMOX protein expression at 0.03 uM incubated for 16 to 18 hrs by immunostaining relative to control"}, "[17]": {"biological_target": "T1, Nuclear factor erythroid 2-related factor 2 (Homo sapiens)", "experiment": "Activation of Nrf2 in normal human lung fibroblasts assessed as induction of HMOX protein expression at 30 uM incubated for 16 to 18 hrs by immunostaining relative to control"}, "[18]": {"biological_target": "T1, Nuclear factor erythroid 2-related factor 2 (Homo sapiens)", "experiment": "Activation of Nrf2 in normal human lung fibroblasts assessed as induction of HMOX protein expression at 3 uM incubated for 16 to 18 hrs by immunostaining relative to control"}, "[19]": {"biological_target": "T1, Nuclear factor erythroid 2-related factor 2 (Homo sapiens)", "experiment": "Activation of Nrf2 in normal human lung fibroblasts assessed as induction of HMOX protein expression by measuring HMOX positive cells level at 1 uM incubated for 16 to 18 hrs by immunostaining relative to control DMSO"}, "[20]": {"biological_target": "T1, Nuclear factor erythroid 2-related factor 2 (Homo sapiens)", "experiment": "Activation of Nrf2 in normal human lung fibroblasts assessed as induction of HMOX protein expression by measuring HMOX positive cells level at 3 uM incubated for 16 to 18 hrs by immunostaining relative to control DMSO"}, "[21]": {"biological_target": "T1, Nuclear factor erythroid 2-related factor 2 (Homo sapiens)", "experiment": "Activation of Nrf2 in normal human lung fibroblasts assessed as induction of HMOX protein expression by measuring HMOX positive cells level at 0.1 uM incubated for 16 to 18 hrs by immunostaining relative to control DMSO"}, "[22]": {"biological_target": "T1, Nuclear factor erythroid 2-related factor 2 (Homo sapiens)", "experiment": "Activation of Nrf2 in normal human lung fibroblasts assessed as induction of HMOX protein expression at 1 uM incubated for 16 to 18 hrs by immunostaining relative to control"}},
  "data": [
    {"smiles": "COC(=O)[C@]12CCC(C)(C)C[C@H]1[C@H]1C(=O)C=C3[C@@]4(C)C=C(C#N)C(=O)C(C)(C)[C@@H]4CC[C@@]3(C)[C@]1(C)CC2", "values": [
      {"measurement": "fold change (FC)", "setting": "[1]", "result": 2.53},
      {"measurement": "fold change (FC)", "setting": "[2]", "result": 19},
      {"measurement": "fold change (FC)", "setting": "[3]", "result": 8.48},
      {"measurement": "fold change (FC)", "setting": "[4]", "result": 16.4},
      {"measurement": "fold change (FC)", "setting": "[5]", "result": 1.31},
      {"measurement": "fold change (FC)", "setting": "[6]", "result": 5},
      {"measurement": "fold change (FC)", "setting": "[7]", "result": 1.59},
      {"measurement": "fold change (FC)", "setting": "[8]", "result": 12.2}
    ]},
    {"smiles": "COC(=O)/C=C/C(=O)OC", "values": [
      {"measurement": "Activity", "setting": "[9]", "result": 74.3, "unit": "%"},
      {"measurement": "fold change (FC)", "setting": "[10]", "result": 1.06},
      {"measurement": "Activity", "setting": "[11]", "result": 2.47, "unit": "%"},
      {"measurement": "fold change (FC)", "setting": "[12]", "result": 4.45},
      {"measurement": "Activity", "setting": "[13]", "result": 1.71, "unit": "%"},
      {"measurement": "fold change (FC)", "setting": "[14]", "result": 1.14},
      {"measurement": "Activity", "setting": "[15]", "result": 84.6, "unit": "%"},
      {"measurement": "fold change (FC)", "setting": "[16]", "result": 1.04},
      {"measurement": "fold change (FC)", "setting": "[17]", "result": 6.19},
      {"measurement": "fold change (FC)", "setting": "[18]", "result": 2.76},
      {"measurement": "Activity", "setting": "[19]", "result": 4.38, "unit": "%"},
      {"measurement": "Activity", "setting": "[20]", "result": 41.6, "unit": "%"},
      {"measurement": "Activity", "setting": "[21]", "result": 1.21, "unit": "%"},
      {"measurement": "fold change (FC)", "setting": "[22]", "result": 1.39}
    ]}
  ]
}
